The text below walks through data of patent US20070254946A1, “Hair Growth Stimulants” (priority 2003, published 2007).

SMILES strings stand for the structures.

The subject of series [1] is hair-matrix cells. Nature of the series: Proliferation effect of cultured hair-matrix cells. The class given is cell-based, Mouse. The settings on record: cultured 6 days; for Relative value of the number of cells: control group = 100%. On the procedure: Mouse hair tissues were collected and hair-matrix cells were cultured by the method disclosed by Tanigaki, et al., using serum free media (Tanigaki, et al., (1990), Arch. Dermatol. Res. 282: 402-407).
On the first day after the start of culturing hair-matrix cells, the culture media were changed to those containing the above-mentioned chromene compounds.
After culturing the hair-matrix cells for 6 days, they were separated from the culture dishes and the number of cells was counted. The effect of each chromene compound is shown by a relative ratio with the number of cells in the control group (the group cultured in a serum-free medium) being defined as 100%.

The conditions of series [2]: reported in Annual Report of Toyama Prefectural Institute for Pharmaceutical Research, 1998; cited from earlier work.

Turning to `COc1cc(C(C)=O)cc2c1OC(C)(C)C=C2` [Acetovanillochromene, 6-acetyl-8-methoxy-2,2-dimethylchromene], in series [1] (1 μg/ml in culture medium), the Proliferation rate turned out to be 33 % increase over control and the “Relative value of the number of cells” value was found to be 133 % control. Besides, in series [1] (10 μg/ml in culture medium), the Proliferation rate came to 35 % increase over control and the “Relative value of the number of cells” value is 135 % control.
For the compound `COc1c(C(C)=O)cc2c(c1OC)OC(C)(C)C=C2` [Methylripariochromene A, 6-acetyl-7,8-dimethoxy-2,2-dimethylchromene], the acute toxicity result in series [2] is given as “no toxicity”. Further, in series [1] (1 μg/ml in culture medium), the Proliferation rate is 12 % increase over control and the “Relative value of the number of cells” value is listed as 112 % control. Also, in series [1] (10 μg/ml in culture medium), the Proliferation rate was found to be 53 % increase over control and the “Relative value of the number of cells” value was determined as 153 % control.
On to `COc1c(C(C)O)cc2c(c1OC)OC(C)(C)C=C2` (stereo not shown) [Orthochromene A, 6-(1-hydroxyethyl)-7,8-dimethoxy-2,2-dimethylchromene], for which the Proliferation rate in series [1] (1 μg/ml in culture medium) stood at 18 % increase over control; in series [1] (10 μg/ml in culture medium), 44 % increase over control. For the same compound, the “Relative value of the number of cells” value came out at 118 % control in series [1] (1 μg/ml in culture medium) and 144 % control in series [1] (10 μg/ml in culture medium).
